Like-named read-outs stand apart in the source and are kept apart here.

One experiment addresses GST-MCL-1 (Homo sapiens, UniProt Q07820). The experiment is described as follows: TR-FRET MCL-1 binding assay (competition with probe F-Bak). An outline of the steps: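 Displacement of F-Bak from GST-MCL-1 is detected by time-resolved FRET with a Tb-labelled anti-GST antibody, with excitation 340/35 nm and emission 520/525 and 495/510 nm, after 2 hours at room temperature. Compounds were titrated in 11 three-fold steps starting at 25 μM final, in buffer alone or in 10% HS.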

The subject of experiment [1] is AMO-1 human multiple myeloma tumor cell line. The experiment is described as follows: AMO-1 cell viability assay (CellTiter-Glo, 24 hours). The experiment is classed as cell-based. The note with it: Homo sapiens, AMO1, 24 h, read-out: AMO-1 Viability IC50 (μM, 10% FBS), 10% FBS, 24 hours of compound treatment.
The test system of experiment [2] is NCI-H929 human multiple myeloma tumor cell line. The experiment is described as follows: NCI-H929 cell viability assay (CellTiter-Glo, 24 hours). The experiment is classed as cell-based. The note with it: Homo sapiens, NCI-H929, 24 h, read-out: H929 Viability IC50 (μM, 10% FBS), 10% FBS, 24 hours of compound treatment.
[3] abbreviates: MCL-1 Binding Ki (nM, 10% HS), in the presence of 10% HS (human serum).
Setting [4] is: without HS, read-out: MCL-1 Binding Ki.

GST-MCL-1, sequence (Q07820 whole entry): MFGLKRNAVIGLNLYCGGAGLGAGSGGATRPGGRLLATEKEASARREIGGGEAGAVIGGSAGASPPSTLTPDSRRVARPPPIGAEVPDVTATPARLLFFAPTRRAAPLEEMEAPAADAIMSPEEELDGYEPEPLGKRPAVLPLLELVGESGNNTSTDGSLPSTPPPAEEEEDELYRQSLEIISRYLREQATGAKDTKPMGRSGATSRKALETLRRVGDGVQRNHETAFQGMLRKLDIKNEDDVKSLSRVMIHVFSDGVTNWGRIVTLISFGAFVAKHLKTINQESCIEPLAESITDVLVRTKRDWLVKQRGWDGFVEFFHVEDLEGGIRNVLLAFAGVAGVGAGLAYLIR

On to `Cc1c(Cl)c2c(Cl)c(C)c1-c1c(-c3ccc(F)cc3)sc3ncnc(c13)O[C@@H](C(=O)O)Cc1cc(ccc1OCc1ccnc([C@H]3CC[C@H](CC(=O)O)CC3)n1)OC[C@@H](CN1CCN(C)CC1)O2` [Example 32, (7R,16R)-10-({2-[(1r,4r)-4-(carboxymethyl)cyclohexyl]pyrimidin-4-yl}methoxy)-19,23-dichloro-1-(4-fluorophenyl)-20,22-dimethyl-16-[(4-methylpiperazin-1-yl)methyl]-7,8,15,16-tetrahydro-18,21-etheno-13,9-(metheno)-6,14,17-trioxa-2-thia-3,5-diazacyclononadeca[1,2,3-cd]indene-7-carboxylic Acid], for which the Ki at GST-MCL-1 (setting [3]) came out at 0.034 nM; on GST-MCL-1 (setting [4]), 0.003 nM. Also, the IC50 in experiment [1] amounted to 0.00878 µM; in experiment [2] it was 0.0143 µM.

Regarding `Cc1c(Cl)c2c(Cl)c(C)c1-c1c(-c3ccc(F)cc3)sc3ncnc(c13)O[C@@H](C(=O)O)Cc1cc(ccc1OCc1ccnc(N3CC4C(C3)C4(F)F)n1)OC[C@@H](CN1CCN(C)CC1)O2` (stereo partly drawn) [Example 33, (7R,16R)-19,23-dichloro-10-{[2-(6,6-difluoro-3-azabicyclo[3.1.0]hexan-3-yl)pyrimidin-4-yl]methoxy}-1-(4-fluorophenyl)-20,22-dimethyl-16-[(4-methylpiperazin-1-yl)methyl]-7,8,15,16-tetrahydro-18,21-etheno-13,9-(metheno)-6,14,17-trioxa-2-thia-3,5-diazacyclononadeca[1,2,3-cd]indene-7-carboxylic Acid], the Ki was found to be 2.23 nM at GST-MCL-1 (setting [3]) and 0.088 nM on GST-MCL-1 (setting [4]). Moreover, the values for the IC50 in experiment [1] and in experiment [2] were 0.000282 µM and 0.00123 µM, respectively.

Take `Cc1c(Cl)c2c(Cl)c(C)c1-c1c(-c3ccc(F)cc3)sc3ncnc(c13)O[C@@H](C(=O)O)Cc1cc(ccc1OCc1ccnc(C3=CCS(=O)(=O)CC3)n1)OC[C@@H](CN1CCN(C)CC1)O2` [Example 34, (7R,16R)-19,23-dichloro-10-{[2-(1,1-dioxo-1,2,3,6-tetrahydro-1λ^6-thiopyran-4-yl)pyrimidin-4-yl]methoxy}-1-(4-fluorophenyl)-20,22-dimethyl-16-[(4-methylpiperazin-1-yl)methyl]-7,8,15,16-tetrahydro-18,21-etheno-13,9-(metheno)-6,14,17-trioxa-2-thia-3,5-diazacyclononadeca[1,2,3-cd]indene-7-carboxylic Acid]: the Ki is 0.276 nM at GST-MCL-1 (setting [3]) and 0.016 nM on GST-MCL-1 (setting [4]). For the same molecule, the IC50 stood at 0.00123 µM in experiment [1] and 0.00242 µM in experiment [2].

`Cc1c(Cl)c2c(Cl)c(C)c1-c1c(-c3ccc(F)cc3)sc3ncnc(c13)O[C@@H](C(=O)O)Cc1cc(ccc1OCc1ccnc(N3C[C@@H]4[C@H](C3)[C@H]4C(=O)O)n1)OC[C@@H](CN1CCN(C)CC1)O2` [Example 36, (7R,16R)-10-({2-[(1R,5S,6r)-6-carboxy-3-azabicyclo[3,1,0]hexan-3-yl]pyrimidin-4-yl}methoxy)-19,23-dichloro-1-(4-fluorophenyl)-20,22-dimethyl-16-[(4-methylpiperazin-1-yl)methyl]-7,8,15,16-tetrahydro-18,21-etheno-13,9-(metheno)-6,14,17-trioxa-2-thia-3,5-diazacyclononadeca[1,2,3-cd]indene-7-carboxylic Acid]: the Ki at GST-MCL-1 (setting [3]) stood at 1.16 nM; at GST-MCL-1 (setting [4]), 0.144 nM. The IC50 in experiment [1] stood at 0.32 µM; in experiment [2], 0.653 µM.

Turning to `Cc1c(Cl)c2c(Cl)c(C)c1-c1c(-c3ccc(F)cc3)sc3ncnc(c13)O[C@@H](C(=O)O)Cc1cc(ccc1OCc1ccnc([C@@]3(O)CCCC[C@@H]3O)n1)OC[C@@H](CN1CCN(C)CC1)O2` [Example 38, (7R,16R)-19,23-dichloro-10-({2-[(1S,2S)-1,2-dihydroxycyclohexyl]pyrimidin-4-yl}methoxy)-1-(4-fluorophenyl)-20,22-dimethyl-16-[(4-methylpiperazin-1-yl)methyl]-7,8,15,16-tetrahydro-18,21-etheno-9,13-(metheno)-6,14,17-trioxa-2-thia-3,5-diazacyclononadeca[1,2,3-cd]indene-7-carboxylic Acid], the Ki at GST-MCL-1 (setting [3]) worked out at 0.416 nM; at GST-MCL-1 (setting [4]), 0.106 nM. Also, the IC50 turned out to be 0.00236 µM in experiment [1] and 0.00577 µM in experiment [2].

Regarding `Cc1c(Cl)c2c(Cl)c(C)c1-c1c(-c3ccc(F)cc3)sc3ncnc(c13)O[C@@H](C(=O)O)Cc1cc(ccc1OCc1ccnc([C@]3(O)CCCC[C@H]3O)n1)OC[C@@H](CN1CCN(C)CC1)O2` [Example 39, (7R,16R)-19,23-dichloro-10-({2-[(1R,2R)-1,2-dihydroxycyclohexyl]pyrimidin-4-yl}methoxy)-1-(4-fluorophenyl)-20,22-dimethyl-16-[(4-methylpiperazin-1-yl)methyl]-7,8,15,16-tetrahydro-18,21-etheno-9,13-(metheno)-6,14,17-trioxa-2-thia-3,5-diazacyclononadeca[1,2,3-cd]indene-7-carboxylic Acid], the inhibitory constant (Ki) on GST-MCL-1 (setting [3]) came to 0.193 nM; at GST-MCL-1 (setting [4]), 0.042 nM. Moreover, the figures for the IC50 in experiment [1] and in experiment [2] were 0.00119 µM and 0.00353 µM, respectively.

For `Cc1c(Cl)c2c(Cl)c(C)c1-c1c(-c3ccc(F)cc3)sc3ncnc(c13)O[C@@H](C(=O)O)Cc1cc(ccc1OCc1ccnc(C3CCS(=O)(=O)CC3)n1)OC[C@@H](CN1CCN(C)CC1)O2` [Example 40, (7R,16R)-19,23-dichloro-10-{[2-(1,1-dioxo-1λ^6-thian-4-yl)pyrimidin-4-yl]methoxy}-1-(4-fluorophenyl)-20,22-dimethyl-16-[(4-methylpiperazin-1-yl)methyl]-7,8,15,16-tetrahydro-18,21-etheno-13,9-(metheno)-6,14,17-trioxa-2-thia-3,5-diazacyclononadeca[1,2,3-cd]indene-7-carboxylic Acid], the Ki at GST-MCL-1 (setting [3]) was determined as 0.085 nM; at GST-MCL-1 (setting [4]), 0.018 nM. In addition, the results for the IC50 in experiment [1] and in experiment [2] were 0.003 µM and 0.00474 µM, respectively.

On to `Cc1c(Cl)c2c(Cl)c(C)c1-c1c(-c3ccc(F)cc3)sc3ncnc(c13)O[C@@H](C(=O)O)Cc1cc(ccc1OCc1ccnc(N3CCC(C)(CC(=O)O)CC3)n1)OC[C@@H](CN1CCN(C)CC1)O2` [Example 41, (7R,16R)-10-({2-[4-(carboxymethyl)-4-methylpiperidin-1-yl]pyrimidin-4-yl}methoxy)-19,23-dichloro-1-(4-fluorophenyl)-20,22-dimethyl-16-[(4-methylpiperazin-1-yl)methyl]-7,8,15,16-tetrahydro-18,21-etheno-13,9-(metheno)-6,14,17-trioxa-2-thia-3,5-diazacyclononadeca[1,2,3-cd]indene-7-carboxylic Acid], for which the Ki on GST-MCL-1 (setting [3]) stood at 1.05 nM; at GST-MCL-1 (setting [4]) it was 0.078 nM. The IC50 in experiment [1] was determined as 0.0159 µM; in experiment [2], 0.019 µM.

As for `Cc1c(Cl)c2c(Cl)c(C)c1-c1c(-c3ccc(F)cc3)sc3ncnc(c13)O[C@@H](C(=O)O)Cc1cc(ccc1OCc1ccnc(N3CC4(COC4)C3)n1)OC[C@@H](CN1CCN(C)CC1)O2` [Example 42, (7R,16R)-19,23-dichloro-1-(4-fluorophenyl)-20,22-dimethyl-16-[(4-methylpiperazin-1-yl)methyl]-10-{[2-(2-oxa-6-azaspiro[3.3]heptan-6-yl)pyrimidin-4-yl]methoxy}-7,8,15,16-tetrahydro-18,21-etheno-9,13-(metheno)-6,14,17-trioxa-2-thia-3,5-diazacyclononadeca[1,2,3-cd]indene-7-carboxylic Acid], the Ki on GST-MCL-1 (setting [3]) came to 0.747 nM; on GST-MCL-1 (setting [4]), 0.085 nM. The values for the IC50 in experiment [1] and in experiment [2] were 0.0011 µM and 0.00314 µM, respectively.

`COCCOCCOCCOCCOCCOCCOCCC(=O)N1CCC[C@@H]1c1nccc(COc2ccc3cc2C[C@H](C(=O)O)Oc2ncnc4sc(-c5ccc(F)cc5)c(c24)-c2ccc(c(Cl)c2C)O[C@H](CN2CCN(C)CC2)CO3)n1` [Example 43, (7R,16R)-19-chloro-1-(4-fluorophenyl)-20-methyl-16-[(4-methylpiperazin-1-yl)methyl]-10-({2-[(2R)-1-(23-oxo-2,5,8,11,14,17,20-heptaoxatricosan-23-yl)pyrrolidin-2-yl]pyrimidin-4-yl}methoxy)-7,8,15,16-tetrahydro-18,21-etheno-13,9-(metheno)-6,14,17-trioxa-2-thia-3,5-diazacyclononadeca[1,2,3-cd]indene-7-carboxylic Acid]: the Ki stood at 39.4 nM on GST-MCL-1 (setting [3]) and 41.1 nM at GST-MCL-1 (setting [4]). Also, the IC50 in experiment [1] and in experiment [2] was above 1 µM throughout.

For `COCCOCCOCCOCCOCCOCCOCCOCCOCCOCCOCCOCCOCC1(c2nccc(COc3ccc4cc3C[C@H](C(=O)O)Oc3ncnc5sc(-c6ccc(F)cc6)c(c35)-c3c(C)c(Cl)c(c(Cl)c3C)O[C@H](CN3CCN(C)CC3)CO4)n2)CCC1` [Example 44, (7R,16R)-19,23-dichloro-1-(4-fluorophenyl)-20,22-dimethyl-16-[(4-methylpiperazin-1-yl)methyl]-10-({2-[1-(2,5,8,11,14,17,20,23,26,29,32,35,38-tridecaoxanonatriacontan-1-yl)cyclobutyl]pyrimidin-4-yl}methoxy)-7,8,15,16-tetrahydro-18,21-etheno-13,9-(metheno)-6,14,17-trioxa-2-thia-3,5-diazacyclononadeca[1,2,3-cd]indene-7-carboxylic Acid], the Ki was determined as 0.224 nM at GST-MCL-1 (setting [3]) and 0.124 nM on GST-MCL-1 (setting [4]). Further, the IC50 in experiment [1] came out at 0.0211 µM; in experiment [2], 0.0179 µM.

The record behind these values is US20250313572A1, “MACROCYCLIC MCL-1 INHIBITORS AND METHODS OF USE” (AbbVie Inc., priority 2017, published 2025).
